“Also recorded” adds a separate entry of the source.
Experiments:
Oprm1−/− mice [1] = assay: Y-maze exploration
Oprm1−/− mice [2] = assay: Locomotor activity by videotracking; format: in vivo; conditions: Example 2; for locomotor activity after bromide administration: 250 and 500 mg/kg
Procedure: (§1) Sodium bromide (anhydrous, Sigma-Aldrich, Saint-Quentin, France) dissolved in saline solution (NaCl, 0.9%) at the dose of 250 or 500 mg/kg, or vehicle (NaCl, 0.9%), was administered intraperitoneally once a day for 19 days in a volume of 20 ml/kg. On testing days, bromide was administered 30 min before behavioural assays. Bumetanide (Tocris, provided by Bio-Techne, Lille, France) dissolved in NaCl 0.9% at the dose of 0.5 mg/kg (Deidda et al, 2015) or vehicle was administered intraperitoneally once a day for 19 days in a volume of 20 ml/kg.
Locomotor activity. Locomotor activity was assessed in clear cages (21×11×17 cm) placed over a white Plexiglas infrared-lit platform. Light intensity of the room was set at 15 lx. The trajectories of the mice were analyzed and recorded via an automated tracking system equipped with an infrared-sensitive camera (Videotrack; View Point, Lyon, France). To focus on forward activity, only movements which speed was over 6 cm/s were taken into account for the measure of locomotor activity. Behavioral testing started when the animals were placed in the activity boxes for a 30 min-habituation period. They were then injected with either vehicle or sodium bromide (250 or 500 mg/kg) and locomotor activity was monitored for further 90 min.

Oprm1−/− mice [3] = assay: Three-chamber social novelty preference test; conditions: bromide 125, 250, 500 mg/kg i.p. daily vs saline
Shank3B−/− mice [4] = assay: Novelty-suppressed feeding test; format: in vivo; conditions: bromide 250 mg/kg i.p. daily
Procedure: as §1
(§2) Behavioural assays started after a week of daily bromide (or bumetanide) treatment.
Novelty-suppressed feeding. […] Immediately after an eating event, the mouse was transferred back to the home cage (free from cage-mates) and allowed to feed on lab chow for 5 min.

Oprm1−/− mice [5] = assay: Motor stereotypies scoring
Fmr1−/− mice [6] = assay: Three-chamber social novelty preference test; format: in vivo; conditions: bromide 250 mg/kg i.p. daily
Procedure: as §1, §2
(§3) Three-chamber social novelty preference test.

Shank3B−/− mice [7] = assay: Three-chamber social novelty preference test; format: in vivo; conditions: bromide 250 mg/kg i.p. daily
Procedure: as §1, §2, §3

Fmr1−/− mice [8] = assay: Motor stereotypies scoring; format: in vivo; conditions: Fmr1 knockout and wild-type; bromide 250 mg/kg i.p. daily
Procedure: as §1, §2

[9] = Example 2, Oprm1−/− mice, bromide 250, 500 mg/kg
[10] = Oprm1−/− and wild-type, bromide 125, 250, 500 mg/kg i.p. daily
[11] = Oprm1−/− mice, bromide 125, 250, 500 mg/kg i.p. daily
[12] = Example 2, Oprm1 wild-type and mutants, bromide 250, 500 mg/kg
[13] = Example 2, Oprm1 wild-type and mutants, bromide 250, 500 mg/kg, listed as Bromide
[14] = Example 2, bromide 250, 500 mg/kg
[15] = all animals, bromide 125, 250, 500 mg/kg i.p. daily

## [Br-].[Na+] [bromide, Sodium bromide]
Oprm1−/− mice [1]; [9]
  ratio of same arm returns (cognitive stereotypies, perseveration): normalized; also recorded: relieved; also recorded: abolished
  spontaneous alternation: restored
Oprm1−/− mice [1]; Example 2, both genotypes and genders, bromide 250 mg/kg
  number of arm entries (index of general locomotor activity): increased
Oprm1−/− mice [1]; Example 2, more in mutants than wild-type, more in females than males
  number of alternate arm returns: increased; also recorded: tendency to increase
Oprm1−/− mice [1]; [10]
  rate of alternate arm returns: increasing the rate
Oprm1−/− mice [1]; [11]
  perseverative same arm returns (cognitive stereotypies): efficiently reduced; also recorded: demonstrated efficacy in reducing; also recorded: dose-dependently decreased; also recorded: significant decrease
Oprm1−/− mice [2]; chronically treated animals, males since 250 mg/kg, females only at 500 mg/kg
  locomotor activity during the habituation run: higher
Oprm1−/− mice [2]; controls (wild-type)
  locomotor activity after bromide administration: not modified in controls at 250 mg/kg and was increased at 500 mg/kg; also recorded: at the dose of 500 mg/kg only
Oprm1−/− mice [2]; mice, bromide 250 mg/kg, males more sensitive
  locomotor activity (overall): increases
Oprm1−/− mice [2]; mutant (KO) animals
  locomotor activity after bromide administration: increased in mutant animals at the dose of 250 mg/kg, but not at 500 mg/kg; also recorded: increased activity
Oprm1−/− mice [3]
  difference (mouse over toy) in nose (close) contact duration: restored difference
  difference (mouse over toy) in number of nose (close) contacts: restored difference
  difference (mouse over toy) in time spent in nose (close) contact: restored difference
  difference (preference for the mouse over the toy) in time spent in compartments: restored difference
  social preference (overall): restored social preference; also recorded: increased social preference; also recorded: restored preference for the living mouse over the toy
Shank3B−/− mice [4]; Shank3B mutants
  food intake back in the home cage: did not rescued
Shank3B−/− mice [4]; Shank3B−/− mice
  exacerbated anxiety (overall): can reduce
  feeding latency: normalized
Oprm1−/− mice [5]; [12]
  number of grooming episodes: increased grooming episodes in wild-type (WT) animals without effects in mu opioid receptor knockouts
  number of head shakes: increased the number of head shakes in control mice to the level of mutants
Oprm1−/− mice [5]; [13]
  number of grooming episodes: increased the number of grooming episodes and male and female wild-type mice, but not in mutants
  number of head shakes: increased the number of head shakes in male and female wild-type mice, not in mutants
Oprm1−/− mice [5]; [9]
  motor stereotypies (overall): little effect
Oprm1−/− mice [5]; Example 2, all treated animals, bromide 250, 500 mg/kg
  time spent burying: decreased
Oprm1−/− mice [5]; [14]
  circling behavior: little effect
  number of burying episodes and their duration: did not modify
Oprm1−/− mice [5]; Example 2, bromide 250, 500 mg/kg, listed as Bromide
  circling behavior: no effect
Oprm1−/− mice [5]; Example 2, males since 250 mg/kg, females at 500 mg/kg only
  number of rearing episodes: increased the number of rearing episodes in wild-type and not knockout animals
Oprm1−/− mice [5]; [10]
  number of grooming episodes: dose-dependently increased the number of grooming episodes, but in wild-type animals only; also recorded: increased grooming occurrence in wild-type animals only
Oprm1−/− mice [5]; [11]
  motor stereotypies (shakes and circling), overall: efficiently reduce; also recorded: demonstrated efficacy in reducing; also recorded: significant decrease
  number of circling episodes: normalized
Oprm1−/− mice [5]; Oprm1−/− mice, bromide 125, 250, 500 mg/kg i.p. daily, listed as Bromide
  number of circling episodes: decreased
Oprm1−/− mice [5]; Oprm1−/− mutant mice, bromide 125, 250, 500 mg/kg i.p. daily
  number of shakes: reduced their occurrence
Oprm1−/− mice [5]; Oprm1−/− mutant mice, bromide 125, 250, 500 mg/kg i.p. daily, listed as Bromide
  number of shakes: decreased
Oprm1−/− mice [5]; all animals (Oprm1−/− and wild-type), bromide 125, 250, 500 mg/kg i.p. daily
  number of rearing episodes: increased
Oprm1−/− mice [5]; [15]
  number of burying episodes: dose-dependently reduced; also recorded: dose dependently reduced
  time spent burying: dose-dependently reduced
Oprm1−/− mice [5]; wild-type (Oprm1+/+) mice, bromide 125, 250, 500 mg/kg i.p. daily
  number of shakes: dose-dependently increased
Oprm1−/− mice [5]; wild-type (Oprm1+/+) mice, bromide 125, 250, 500 mg/kg i.p. daily, listed as Bromide
  number of shakes: increased
Fmr1−/− mice [6]; Fmr1 knockout or wild-type
  number of close contacts with the mouse: no significant effect
  preferential time spent in the compartment with the mouse: no significant effect
Fmr1−/− mice [6]; Fmr1−/− mice
  duration of close contacts with the mouse versus the toy: increased; also recorded: restored
  preference in time spent in close contact with the mouse versus the toy: increased; also recorded: restored
Shank3B−/− mice [7]; Shank3B line
  number of close contacts with the mouse versus the toy: no significant effect
  preferential time spent in the compartment with the mouse versus the toy: no significant effect
Shank3B−/− mice [7]; Shank3B−/− mice
  duration of close contacts with the mouse versus the toy: increased; also recorded: restored
  preference in time spent in close contact with the mouse versus the toy: increased; also recorded: restored
Fmr1−/− mice [8]
  number of rearing, grooming or burying episodes: no effect

From patent US12036237B2, “Bromide source for use in treating autism spectral disorder” (INSERM (INSTITUT NATIONAL DE LA SANTE ET DE LA RECHERCHE …, priority 2016, dated 2024)
